In patent publication US9562044B2, “2-acylaminothiazole derivative or salt thereof” (ASTELLAS PHARMA INC., priority 2013, dated 2017):

Experiments:
human c-Mpl receptor [1] = target: T1, human c-Mpl receptor (Homo sapiens, UniProt P40238); experiment: Human c-Mpl-introduced Ba/F3 cell proliferative activity; type: cell-based; conditions: concentration showing 30% proliferation; 100% = positive control at 1 μM
T1 construct: expressed in transfected cells
T1 sequence (P40238 26-635): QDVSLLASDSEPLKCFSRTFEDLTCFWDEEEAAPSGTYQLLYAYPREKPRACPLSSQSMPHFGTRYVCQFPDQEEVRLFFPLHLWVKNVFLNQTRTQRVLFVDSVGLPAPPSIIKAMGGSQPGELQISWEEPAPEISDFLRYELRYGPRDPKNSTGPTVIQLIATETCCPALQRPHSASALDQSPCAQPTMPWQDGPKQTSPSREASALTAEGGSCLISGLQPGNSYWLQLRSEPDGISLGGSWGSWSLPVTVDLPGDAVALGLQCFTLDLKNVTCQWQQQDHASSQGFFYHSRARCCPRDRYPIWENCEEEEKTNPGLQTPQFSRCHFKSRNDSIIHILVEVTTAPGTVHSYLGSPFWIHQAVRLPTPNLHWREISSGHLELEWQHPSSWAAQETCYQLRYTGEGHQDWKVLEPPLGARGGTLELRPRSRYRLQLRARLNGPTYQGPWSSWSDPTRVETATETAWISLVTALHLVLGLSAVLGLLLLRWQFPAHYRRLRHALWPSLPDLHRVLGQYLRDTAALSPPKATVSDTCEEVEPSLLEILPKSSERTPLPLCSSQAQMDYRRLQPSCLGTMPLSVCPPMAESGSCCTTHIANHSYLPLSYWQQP
Experimental: Evaluation of Human c-Mpl-Introduced Ba/F3 Cell Proliferative Activity
The human c-Mpl-introduced Ba/F3 cell proliferative activity was measured by the following method.
As a positive control, 1-(5-{[4-(4-chloro-2-thienyl)-5-{[(2R)-2-methylpyrrolidin-1-yl]methyl}-1,3-thiazol-2-yl]carbamoyl}-3-fluoropyridin-2-yl)piperidine-4-carboxylic acid hydrochloride, which is disclosed as Example 315 in Patent Document 1 and represented by the formula A1, was used. It is known that the compound has a good human c-Mpl-introduced Ba/F3 cell proliferative activity as disclosed in Table 1 of Patent Document 1.
a) Construction of Human c-Mpl Receptor Expression Vector
A human c-mpl receptor gene (GenBank Accession No. M90102.1) was introduced into an expression vector pEF-BOS (Nucleic Acids Res. 18, 5322, 1990).
b) Construction of Cell Stably Expressing Human c-Mpl Receptor
A human c-Mpl receptor expression vector was introduced into a Ba/F3 cell (RIKEN BRC: RCB0805). For the introduction, an electroporation method was used. pEF-BOS-c-mpl (10 μg), pSV2bsr (1 μg, Kaken Pharmaceutical Co., Ltd.) and 1×10^7 Ba/F3 cells were put into a cuvette having a gap width of 0.4 cm, and electroporated under the conditions of 1.5 kV (25 μF) by a Gene Pulser (registered trademark) (BioRad). The cells were cultured in an RPMI-1640 culture medium containing 0.5% WEHI conditioned media (BD Biosciences) and 10% fetal bovine serum for 3 days, and then cultured in an RPMI-1640 culture medium, to which 10 μg/mL blasticidin had been further added, for 30 days to acquire a drug-resistant clone.
c) Measurement of Cell Proliferative Activity
The cells obtained in b) above was cultured in an RPMI-1640 culture medium containing 0.5% WEHI conditioned media, 10% fetal bovine serum, and used. On the day before the experiment, test substances (final concentration of 100 nM to 10 μM) which had been dissolved in a culture medium for assay (RPMI-1640 culture medium containing 10% fetal bovine serum) were added to a 384-well plate (Lot No. 781185, Greiner Bio-One). The cells in the culture medium that had been replaced with a culture medium for assay were dispensed into a 384-well plate, to which the test substances had been added in advance, to 1×10^4 cells/well, and cultured at 37° C. and 5% CO2 overnight. On the experiment day, a solution of a Cell Counting Kit (Dojindo Laboratories) was added to each well of the 384-well plate and cultured at 37° C. and 5% CO2 for about 5 hours. Thereafter, the absorbance (absorption wavelength of 450 nm) of each well was measured using Safire^2™ (TECAN) and used as the index of the number of cells. Further, as a negative control, a well in which the test substance had been not added was prepared.
The absorbance of the well without the test substance was set to 0%, and the absorbance in the case where the positive control was added at a final concentration of 1 μM was set to 100%. From the absorbance in the case where the test substance had been added, a cell proliferation rate (%) was calculated. From the obtained results, the test substance concentration showing 30% proliferation was calculated as an EC30 value by a logistic regression method.

isolated rat bladder = experiment: Transmural electrical field stimulation-induced contraction of isolated rat bladder; conditions: AUC of contractile response, value before treatment = 100%, SD female rat bladder strip, read-out: Enhancement rate of isolated bladder contraction (% of pre)
Experimental: Effects on Transmural Electrical Field Stimulation-Induced Contraction of Isolated Rat Bladder
As an effect on the nerve stimulation-dependent bladder contraction in vitro, the effect of the Example compound of the present invention in the transmural electrical field stimulation-induced contraction of isolated rat bladder was measured by the following method. That is, from the bladder isolated from a Spraque-Dawley (SD) female rat (Japan SLC, Inc.), a longitudinal bladder strip having a width of about 2 mm and a length of about 10 mm was prepared. The prepared bladder strip was suspended in an organ bath filled with 10 mL of a Krebs-Henseleit solution. The Krebs-Henseleit solution was bubbled with 95% O2 and 5% CO2, and kept at 37° C. After stabilization at an initial tension of 1 g, contraction was induced twice with 60 mM KCl. The strip was washed with the Krebs-Henseleit solution and stabilized, and then contraction was induced with transmural electrical field stimulation at 20 V (stimulation frequency of 8 Hz, pulse width of 0.3 msec, and stimulation time of 10 seconds) by an electrical stimulation device (Nihon Kohden Corporation). At an interval of 2 minutes, transmural electrical field stimulation was repeated and the voltage was adjusted to make the contractile amplitude about 50% of the contractile response by 20 V. After stabilization of the contraction by the transmural electrical field stimulation, 10 μL of the test substance (final concentrations of 3 μM, 10 μM, and 30 μM), which had been dissolved in 100% dimethylsulfoxide in advance was added. The test substance was cumulatively administered at the next concentration after the contractile response at a lower concentration had been stabilized. The responses were put into a personal computer through PowerLab (registered trademark) (AD Instruments), and analyzed with LabChart (registered trademark) (AD Instruments). The area under the response of each contractile response (area under curve, AUC) was calculated and the value before the treatment with the test substance was set to 100%. Based on this, the enhancement rate of the isolated bladder contraction (% of pre) after the treatment with the test substance was calculated.
The enhancement rates of the isolated bladder contraction due to several 10 μM Example compounds which are the compounds of the formula (I) are shown in Table 2.

human c-Mpl receptor [2] = target: T1, human c-Mpl receptor; conditions: positive control; as disclosed in Patent Document 1; cited from earlier work

For `CC[C@@H]1CCCN1Cc1sc(NC(=O)c2cnc(N3CCC(C(=O)O)CC3)cn2)nc1-c1ccc(OC)c(C(F)(F)F)c1` [Example 8, 1-{5-[(5-{[(2R)-2-ethylpyrrolidin-1-yl]methyl}-4-[4-methoxy-3-(trifluoromethyl)phenyl]-1,3-thiazol-2-yl)carbamoyl]pyrazin-2-yl}piperidine-4-carboxylic acid], the melting point was 194 °C.

In the case of `COc1ccc(-c2nc(NC(=O)c3cnc(N4CCC(C(=O)O)CC4)cn3)sc2CN2CCCC2C(C)C)cc1C(F)(F)F` (stereo not drawn) [Example 188], the “Test Example 2 EC30” value (human c-Mpl receptor [1]) is reported as over 10 µM and the activity at 10 µM (isolated rat bladder) is reported as 128%.

`C[C@@H]1CCCN1Cc1sc(NC(=O)c2cnc(N3CCC(C(=O)O)CC3)cn2)nc1-c1cc(Cl)cs1` [Example 206, 1-(5-{[4-(4-chloro-2-thienyl)-5-{[(2R)-2-methylpyrrolidin-1-yl]methyl}-1,3-thiazol-2-yl]carbamoyl}pyrazin-2-yl)piperidine-4-carboxylic acid] showed a melting point of 201 °C.

`COc1cc(-c2nc(NC(=O)c3cnc(N4CCC(C(=O)O)CC4)cn3)sc2CN2CCCC[C@H]2C)cc(C(F)(F)F)c1` [Example 207, 1-{5-[(4-[3-methoxy-5-(trifluoromethyl)phenyl]-5-{[(2R)-2-methylpiperidin-1-yl]methyl}-1,3-thiazol-2-yl)carbamoyl]pyrazin-2-yl}piperidine-4-carboxylic acid] showed a melting point of 136 °C.

For `C[C@@H]1CCCN1Cc1sc(NC(=O)c2cnc(N3CCC(C(=O)O)CC3)c(F)c2)nc1-c1cc(Cl)cs1.Cl` [Example A1, 1-(5-{[4-(4-chloro-2-thienyl)-5-{[(2R)-2-methylpyrrolidin-1-yl]methyl}-1,3-thiazol-2-yl]carbamoyl}-3-fluoropyridin-2-yl)piperidine-4-carboxylic acid hydrochloride], the “Human c-Mpl-introduced Ba/F3 cell proliferative activity (Table 1 of Patent Document 1)” value (human c-Mpl receptor [2]) is listed as “good”.
